Assay results reported in article PMC9323733, “Efficacy of Vafidemstat in Experimental Autoimmune Encephalomyelitis Highlights the KDM1A/RCOR1/HDAC Epigenetic Axis in Multiple Sclerosis” (Pharmaceutics, 2022).

Columns and labels:
Format in all cases: in vivo, mouse
spleen cells of EAE mice = test: EAE, autoreactive response of spleen cells from treated mice (proliferation, cytokines/chemokines); conditions: ORY-2001 0.5 mg/kg; for IFNγ and IL-4 in Con A-stimulated spleen cells: FTY720 1.0 mg/kg
Description: Spleen and draining lymph node (DLN) cells (10^6/mL) collected from EAE mice were stimulated in complete medium (RPMI 1640 containing 10% FBS, 50 µM 2-ME, 2 mM L-glutamine, 100 U/mL penicillin, and 100 µg/mL streptomycin) with 15 µM MOG35–55. After 48 h, cytokine (IL-4, TNF-alpha, IFN-gamma) and chemokine (IP-10 and MCP1) contents in culture supernatants were determined by sandwich ELISAs using capture/biotinylated detection Abs according to the manufacturer’s recommendations. The antibodies used are indicated in Supplementary Materials Table S4. Cell proliferation was evaluated after 72 h by adding 2.5 µCi/mL tritiated-thymidine during the last 8 h of culture and determining cpm incorporation in a Microbeta counter. We used T cell activation with an anti-CD3 […] antibody (1 µg/mL) or ConA (2.5 µg/mL) as controls of unspecific polyclonal stimulation.

spinal cord of EAE mice = test: EAE, histopathology of spinal cord (demyelination plaques, infiltration); conditions: ORY-2001 0.5 mg/kg; for infiltrating/demyelinating plaques in spinal cord: day 17, FTY720 1.0 mg/kg
Description: Cervical and lumbar spinal cord segments of spinal cords obtained from EAE mice sacrificed on day 17 or 26 post-immunization were divided and processed for inclusion and sectioning in paraffin and for inclusion in an optimal cutting temperature (OCT) compound and future cryosectioning of the samples. Spinal cord segments were immediately fixed with buffered 10% formalin for 48 h, dehydrated and included in paraffin using standard techniques. For a preliminary analysis, transversal sections (4 µm thickness) were stained with Luxol fast blue, cresyl violet, and hematoxylin following the Klüver–Barrera technique and were analyzed for the presence of areas of demyelination and cell infiltration using a light microscope (Leica, DM2000). After hematoxylin/eosin staining in the TMEV model, cell infiltration in the cervical and thoracic spinal cord was evaluated according to the criteria of Mansilla et al.: score 0: no lesion; 1: cellular infiltration only in the meninges; 2: very discrete and superficial infiltrates in the parenchyma; 3: moderate infiltration (less than 25%) in the white matter; 4: severe infiltration (less than 50%) in the white matter; and 5: high severe infiltration (>50%) in the white matter. The remaining spinal cord segments from EAE mice and from mice of the TMEV model were fixed with 4% paraformaldehyde/0.1 M phosphate buffer pH 7.4 for 12 h at 4 °C, cryopreserved in 30% sucrose in PBS for 24 h, embedded in OCT in liquid nitrogen, and stored at −80 °C prior to cryosectioning and immunohistochemistry. 20 and 30 µm-thick transversal cryostat sections from Tissue Tek embedded tissue were obtained from EAE and TMEV samples, respectively, and kept in a cryoprotection solution (30% ethylene glycol, 10 mg/mL polyvinylpyrrolidone-40 (PVP-40), 300 mg/mL sucrose in 60 mM PB) at −20 °C. Mouse #6 from the TMEV + vehicle group died on day 77 post-infection and was therefore not included.

brain of EAE mice = test: Microarray, brain of EAE mice, effector phase (E), 24 h after treatment; ORY-2001 0.5 mg/kg, FTY720 1.0 mg/kg
Description: We evaluated differences in gene expression induced by the treatment using real-time PCR and by microarray hybridization analysis. First, total RNA was isolated from brain and spinal cord segments from EAE mice using Qiazol™ and the RNeasy MiniKit™ extraction kit (Qiagen). Evaluation of RNA quality was performed with the Agilent 2100 bioanalyzer and NanoDrop™ ND-1000 (Thermo Scientific, Dartford, Kent, UK). After DNAse I treatment, RNA (1 µg/sample) was reverse transcribed using RevertAid First strand cDNA Synthesis kit (Fermentas) and random hexamer primers. For evaluating the expression of the inflammatory markers TNFα, IL-1β, IP10, IL-4, and CCL5, real time PCR was performed by using iQ SYBR Green Supermix (Bio-Rad, Feldkirchen, Germany) according to manufacturer’s instructions in a BIORAD CFX96 thermal cycler. Primer sequences and PCR conditions are indicated in Supplementary Materials Table S3. […]
For the gene expression studies, data from microarray assays were normalized by modified nonlinear Q-splines normalization method and Log2(Sample/Vehicle) values calculated without background correction (which permits robust selection of differentially expressed genes yet may lead to sub-estimation of the magnitude of change for genes expressed near the detection limit). Differential expression was assessed with the proprietary Polyphemus software using robust statistics on the average technical replicates (3 replicates/gene oligo datapoint) after removing eventual outlier points (caused by dust or array imperfections). […] The p values were calculated after outlier elimination based on the absolute value of the regularized t-statistics, which uses a Bayesian framework to derive the algorithm, using internal replicated controls to assess the minimum technical variability of the process. Correlation between gene expression changes induced by different treatments was analysed by calculating the Pearson correlation coefficient r using the Log2(Treatment/Veh) values for all genes expressed above background level (n). […]

With `Nc1nnc(CN[C@@H]2C[C@H]2c2ccc(OCc3ccccc3)cc2)o1` [ORY-2001] the “IP-10 and MCP-1 production induced by MOG35–55” value (spleen cells of EAE mice; day 17) was “significant increase in the production of the pro-inflammatory chemokines IP-10 and MCP-1”, the “MOG35–55-induced proliferation of spleen cells” value (spleen cells of EAE mice; day 17) was “significantly reduced the MOG35–55-induced proliferation of spleen cells” and the “IFNγ and IL-4 in Con A-stimulated spleen cells” value (spleen cells of EAE mice; day 17) was “neither affected such cytokines (at the time of study) nor TNF-alpha”. For the same compound, the “TNF-alpha and MCP-1 levels, MOG35–55-specific recall response” value (spleen cells of EAE mice; day 26) was “significantly reduced the levels of TNF-alpha and MCP-1”, the “IFNγ, IL-17 and IP-10 levels, MOG35–55-specific recall response” value (spleen cells of EAE mice; day 26, ORY-LSD1 180 µg/kg) was “produced equivalent levels of IFNγ, IL-17, and IP-10” and the “IL-4 production by spleen cells” value (spleen cells of EAE mice; day 26, ORY-LSD1 180 µg/kg) was “increased with both treatments”. For the same compound, the “MOG35–55- and anti-CD3-stimulated proliferation of spleen lymphocytes” value (spleen cells of EAE mice; day 26, ORY-LSD1 180 µg/kg) was “reduced MOG35–55 but not anti-CD3 -stimulated proliferation”, the “infiltrating/demyelinating plaques in spinal cord” value (spinal cord of EAE mice) was “reduced the presence of infiltrating/demyelinating plaques in both cervical and lumbar segments” and the “plaques with inflammatory infiltrates and areas of demyelination” value (spinal cord of EAE mice; day 26, lumbar and cervical, ORY-LSD1 180 µg/kg) was “significantly reduced the number of plaques”. The “expression of pituitary markers Gh, Prl, Pomc, Cga” value (brain of EAE mice) was “potently downregulated the pituitary markers Gh, Prl, Pomc, and Cga”.

For `CCCCCCCCc1ccc(CCC(N)(CO)CO)cc1` [FTY720, Fingolimod, reference compound], the “IFNγ and IL-4 in Con A-stimulated spleen cells” value (spleen cells of EAE mice; day 17) was “reduced the levels of IFNγ and increased IL-4 release”, the “infiltrating/demyelinating plaques in spinal cord” value (spinal cord of EAE mice) was “reduced the number and size of demyelinating plaques in cervical but not in lumbar sections” and the “expression of Cox1” value (brain of EAE mice) was “induction of Cox1”. For the same compound, the “expression of pituitary markers Gh, Prl, Pomc, Cga” value (brain of EAE mice) was “potently downregulated the pituitary markers Gh, Prl, Pomc, and Cga”.
